In ChEMBL document CHEMBL1151308, “Acanthosterol sulfates A-J: ten new antifungal steroidal sulfates from a marine sponge Acanthodendrilla sp” (1998):
Activity calls are given as the source filed them. No cut-off for these calls is given here.

How the values were obtained:
[1] = tested on: Saccharomyces cerevisiae; experiment: Antifungal activity against Saccharomyces cerevisiae A364A at 0.1 mg/disk; type: functional
[2] = tested on: Saccharomyces cerevisiae; experiment: Antifungal activity against Saccharomyces cerevisiae RAY-3Aa at 0.1 mg/disk; type: functional, organism-based
[3] = tested on: Saccharomyces cerevisiae; experiment: Antifungal activity against Saccharomyces cerevisiae STX338-2C mutant at 0.1 mg/disk; type: functional
[4] = tested on: Saccharomyces cerevisiae; experiment: Antifungal activity against Saccharomyces cerevisiae GT160-45c at 0.1 mg/disk; type: functional, organism-based
[5] = tested on: Saccharomyces cerevisiae; experiment: Antifungal activity against Saccharomyces cerevisiae 14028g mutant at 0.1 mg/disk; type: functional

Compound	inhibition zone (IZ) [1]	Activity [2]	inhibition zone (IZ) [3]	Activity [4]	inhibition zone (IZ) [5]
CC(=O)O[C@@H]1C[C@]2(C)[C@H]3CC[C@]4(C)[C@@H]([C@H](C)[C@@H]5O[C@H]5[C@@H](C)C(C)C)CC[C@H]4C3=CC[C@H]2[C@H](OS(=O)(=O)[O-])[C@H]1O.[Na+] [ACANTHOSTEROL SULFATE J]	11 mm	inactive	10 mm	inactive	11 mm
CC(=O)O[C@@H]1C[C@]2(C)[C@H]3CC[C@]4(C)[C@@H]([C@H](C)[C@@H]5O[C@H]5[C@H](C)C(C)C)CC[C@H]4C3=CC[C@H]2[C@H](OS(=O)(=O)[O-])[C@H]1O.[Na+] [ACANTHOSTEROL SULFATE I]	7 mm	inactive	8 mm	inactive	9 mm
